# Laboratory results as given in patent US20250367215A1, “PHARMACEUTICAL COMBINATION COMPRISING A CHOLANE DERIVATIVE AND A STATIN OR URSODESOXYCHOLIC ACID” (BAR PHARMACEUTICALS SOCIETA' A RESPONSABILITA' LIMITATA, priority 2022, published 2025).
# System: C57BL6 mice
# Assay: HFD-F diet-induced NASH mouse model, BAR502 and UDCA (Example 2)
# Assay type: in vivo
# Conditions: C57BL6 mice on HFD-F for 61 days; oral from day 6; UDCA 30 mg/kg alone or with BAR502 30 mg/kg
# Excerpt: The mouse model of Example 1 was used once again. Using this mouse model, the inventors therefore investigated the effectiveness of the association between BAR502 and UDCA in preventing the development of NASH.
smiles,measurement,value
"C[C@H](CCC(=O)O)[C@H]1CC[C@H]2[C@@H]3[C@@H](O)C[C@@H]4C[C@H](O)CC[C@]4(C)[C@H]3CC[C@]12C [UDCA, ursodesoxycholic acid]","effect on insulin resistance, glucose load curve (OGTT) (FIG. 9)",beneficial effects on insulin resistance
